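Values below derive from 48-hour exposures of cells grown in 96-well plates, with endpoints linearly interpolated between the two concentrations bracketing the appropriate inhibition level. The concentration for 50% growth inhibition is given as GI50.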 Activity calls are given as the source filed them. Rule as the data show it: active = GI50 up to about 1.1 µM and inactive = higher.
Assays:
Test in all cases: NCI tumour cell line growth inhibition, 48 h
NCI-H23 = tested on: NCI-H23
OVCAR-8 = tested on: OVCAR-8
OVCAR-4 = tested on: OVCAR-4
M14 = tested on: M14
MDA-MB-435 = tested on: MDA-MB-435
SNB-19 = tested on: SNB-19
HL-60 = tested on: HL-60
T47D = tested on: T47D
A549 = tested on: A549
KM12 = tested on: KM12
EKVX = tested on: EKVX
SF-268 = tested on: SF-268
UO-31 = tested on: UO-31
A498 = tested on: A498
UACC-62 = tested on: UACC-62
MOLT-4 = tested on: MOLT-4
MCF7 = tested on: MCF7
SNB-75 = tested on: SNB-75
SK-OV-3 = tested on: SK-OV-3

Row | Compound | GI50 (NCI-H23) | GI50 (OVCAR-8) | GI50 (OVCAR-4) | GI50 (M14) | GI50 (MDA-MB-435) | GI50 (SNB-19) | GI50 (HL-60) | GI50 (T47D) | GI50 (A549) | GI50 (KM12) | GI50 (EKVX) | GI50 (SF-268) | GI50 (UO-31) | GI50 (A498) | GI50 (UACC-62) | GI50 (MOLT-4) | GI50 (MCF7) | GI50 (SNB-75) | GI50 (SK-OV-3)
1 | N[C@H]1CCN(c2c(F)cc3c(=O)c(C(=O)O)cn4c3c2Oc2c-4ccc3c2ccc2ccccc23)C1 | 1.22 µM (inactive) | 0.664 µM (active) | 0.535 µM (active) | 2.15 µM (inactive) | 1.05 µM (active) | 1.33 µM (inactive) | 4.21 µM (inactive) | 2.65 µM (inactive) | 1.12 µM (inactive) | 1 µM (active) | 0.377 µM (active) | 0.288 µM (active) | 1.64 µM (inactive) | 10.4 µM (inactive) | 5.68 µM (inactive) | 0.0643 µM (active) | 0.817 µM (active) |  | 
2 | Oc1ccccc1/C=N/N1C(=S)N(c2ccccc2)C(=N\c2ccccc2)/C1=N/c1ccccc1 | 11.1 µM (inactive) | 4.97 µM (inactive) | 1.27 µM (inactive) | 15.1 µM (inactive) | 22.3 µM (inactive) | 6.47 µM (inactive) | 30 µM (inactive) | 15.9 µM (inactive) | 13.9 µM (inactive) | 46.3 µM (inactive) | 14.9 µM (inactive) | 12.1 µM (inactive) | 14 µM (inactive) | 5.33 µM (inactive) | 13.9 µM (inactive) | > 33.3 µM (inactive) | > 100 µM (inactive) | 3.21 µM (inactive) | 13.9 µM (inactive)
3 | c1cc2nnc1SCCSCCSc1ccc(nn1)SCCSCCS2 | > 100 µM (inactive) | > 100 µM (inactive) | > 100 µM (inactive) | > 100 µM (inactive) | > 100 µM (inactive) | > 100 µM (inactive) | > 100 µM (inactive) | > 100 µM (inactive) | > 100 µM (inactive) | > 100 µM (inactive) | > 100 µM (inactive) | > 100 µM (inactive) | > 100 µM (inactive) | > 100 µM (inactive) | > 100 µM (inactive) | > 100 µM (inactive) | > 100 µM (inactive) | 18.5 µM (inactive) | > 100 µM (inactive)
4 | O=C(/C=C1/NC(=O)CS1)Nc1ccccc1 | > 100 µM (inactive) | > 100 µM (inactive) | > 100 µM (inactive) | > 100 µM (inactive) |  | > 100 µM (inactive) | > 100 µM (inactive) |  | > 100 µM (inactive) | > 100 µM (inactive) | > 100 µM (inactive) | > 100 µM (inactive) | > 100 µM (inactive) | > 100 µM (inactive) | > 100 µM (inactive) | > 100 µM (inactive) |  | 50 µM (inactive) | > 100 µM (inactive)
5 | C=CCN(N=O)C(=O)N(CCC)CCCC(NC(C)=O)C(=O)NCc1ccccc1 (stereo unspecified) | > 100 µM (inactive) | > 100 µM (inactive) | > 100 µM (inactive) | > 100 µM (inactive) |  | > 100 µM (inactive) | > 100 µM (inactive) |  | > 100 µM (inactive) | > 100 µM (inactive) | > 100 µM (inactive) | > 100 µM (inactive) | > 100 µM (inactive) | > 100 µM (inactive) | > 100 µM (inactive) | > 100 µM (inactive) |  | > 100 µM (inactive) | > 100 µM (inactive)
6 | COC(=O)c1ccc(C(=O)OC)c2nc3cc(C)ccc3nc12 | > 100 µM (inactive) | > 100 µM (inactive) | > 100 µM (inactive) | > 100 µM (inactive) |  | > 100 µM (inactive) | > 100 µM (inactive) |  | > 100 µM (inactive) | > 100 µM (inactive) | > 100 µM (inactive) | > 100 µM (inactive) | > 100 µM (inactive) | > 100 µM (inactive) | > 100 µM (inactive) | > 100 µM (inactive) |  | > 100 µM (inactive) | > 100 µM (inactive)
7 | CC1(C)OC(COCCOCCCCCO)C(COCCOCCCCCO)O1 (stereo unspecified) | > 100 µM (inactive) | > 100 µM (inactive) | > 100 µM (inactive) | > 100 µM (inactive) |  | > 100 µM (inactive) | > 10 µM (inactive) |  | > 100 µM (inactive) | > 100 µM (inactive) | > 100 µM (inactive) | > 100 µM (inactive) | > 100 µM (inactive) | > 100 µM (inactive) | 82.6 µM (inactive) | > 100 µM (inactive) |  | > 100 µM (inactive) | > 100 µM (inactive)
8 | O=C(O)CCCCC1CCSS1 (stereo not drawn) [LIPOIC ACID, ALPHA] | > 100 µM (inactive) | > 100 µM (inactive) | > 100 µM (inactive) | 77.1 µM (inactive) | > 100 µM (inactive) | > 100 µM (inactive) | 34.3 µM (inactive) | > 100 µM (inactive) | > 100 µM (inactive) | > 100 µM (inactive) | > 100 µM (inactive) | > 100 µM (inactive) | > 100 µM (inactive) |  |  | > 100 µM (inactive) | > 100 µM (inactive) | 93.8 µM (inactive) | 
9 | COc1ccc(N(CN2C(=O)CCC2OC)C(C)=O)cc1 (stereo unspecified) | > 100 µM (inactive) | > 100 µM (inactive) | > 100 µM (inactive) | > 100 µM (inactive) | > 100 µM (inactive) | > 100 µM (inactive) |  | > 100 µM (inactive) | > 100 µM (inactive) | > 100 µM (inactive) | > 100 µM (inactive) | > 100 µM (inactive) | > 100 µM (inactive) | > 100 µM (inactive) | > 100 µM (inactive) | > 100 µM (inactive) | > 100 µM (inactive) | > 100 µM (inactive) | > 100 µM (inactive)
10 | COC(=O)/C(=N\NC(N)=O)C(C(=O)C=C(C)C)C(=O)C(=O)Nc1ccc(Cl)c(Cl)c1 (stereo unspecified) | > 100 µM (inactive) | > 100 µM (inactive) | > 100 µM (inactive) | > 100 µM (inactive) |  | > 100 µM (inactive) | > 100 µM (inactive) |  | > 100 µM (inactive) | > 100 µM (inactive) | > 100 µM (inactive) | > 100 µM (inactive) | > 100 µM (inactive) | > 100 µM (inactive) | > 100 µM (inactive) | > 100 µM (inactive) |  | > 100 µM (inactive) | > 100 µM (inactive)
11 | CN(C)CCCN1c2ccc([N+](=O)[O-])cc2CCc2cccc([N+](=O)[O-])c21 | 15.9 µM (inactive) | 17 µM (inactive) | 0.57 µM (active) | 13.7 µM (inactive) | 14.6 µM (inactive) | 17.5 µM (inactive) | 18.1 µM (inactive) | 17.4 µM (inactive) | 16 µM (inactive) | 15.6 µM (inactive) | 16.1 µM (inactive) | 15.5 µM (inactive) |  |  | 3.37 µM (inactive) | 15.8 µM (inactive) |  | 13.2 µM (inactive) | 14.8 µM (inactive)
12 | CC1CC(c2ccccc2)=Nc2ccccc2S1(=O)=O (stereo unspecified) | 16.6 µM (inactive) | 21.1 µM (inactive) | 19 µM (inactive) | 20.7 µM (inactive) |  | 14.3 µM (inactive) | 21 µM (inactive) |  | 23.6 µM (inactive) | 16.3 µM (inactive) | 20.4 µM (inactive) | 16.9 µM (inactive) | 15.6 µM (inactive) | 14.8 µM (inactive) | 20.5 µM (inactive) | 16.8 µM (inactive) |  | 19.2 µM (inactive) | 19.7 µM (inactive)

From ChEMBL document CHEMBL1201862, “PubChem BioAssay data set” (2004)
